Test results as given in patent publication EP2289528A1, “Novel nutraceutical compositions containing black pepper or its constituents improving mental performance” (DSM IP Assets B.V., priority 2009, dated 2011).
Like-named read-outs stand apart in the source and are kept apart here.

Key:
[1] = test system: pCREB; assay: Hippocampal slice cultures, immunohistochemistry of synaptic marker pCREB; assay type: cell-based, Wistar rats; details: relative activation vs sister cultures treated with buffer; 15 min treatment after 48 h in culture; further: key: ++++ shows a qualitative maximal activation; -- shows a reduced activation; ++ signifies a half-maximum activation; ± demonstrated no change in immunoreactivity
Experimental: (§1) Seven-day-old Wistar rats were decapitated using a guillotine. […] Transversal hippocampal slices (400 µm) were prepared using a vibrating blade microtome (VT1200S; Leica Microsystems (Schweiz) AG, Heerbrugg, Switzerland) in the same buffer. Hippocampal slices were individually placed on a membrane insert (Millicell Culture Plate Inserts, 0.4 µm) and cultivated at 35 °C, 5% CO2, 95% humidity in a medium containing a 1:1 mixture of BME and MEM (both from Invitrogen) containing 25% heat-inactivated horse serum, 1x GlutaMAX, 1x Penicillin/Streptomycin, 0.6% glucose and 1mM Kynurenic acid (Stoppini, Buchs and Muller (1991), J. Neurosci. Methods, 37(2), 173-82). After 48 h in culture, synaptic NMDA receptors were activated by addition of black pepper extract or its constituents for 15 min in 140 mM NaCl, 5 mM KCl, 1.3 mM CaCl2, 25 mM HEPES (pH 7.3), 33 mM D-glucose and 0.02 mM bicuculline methiodide. […] After the treatments, sections were washed and fixed for immunohistochemistry. Markers of enhanced synaptic activity, normally associated with long-term potentiation, representing an ex vivo model of learning and memory were quantitated (see Table 2, below). Table 2. […] The activation of any of these markers (or a combination thereof) is observed in classical LTP experiments. TABLE 2 […]

[2] = test system: pMAPK; assay: Hippocampal slice cultures, immunohistochemistry of synaptic marker pMAPK; assay type: cell-based, Wistar rats; details: relative activation vs sister cultures treated with buffer; 15 min treatment after 48 h in culture; further: key: ++++ shows a qualitative maximal activation; -- shows a reduced activation; ++ signifies a half-maximum activation; ± demonstrated no change in immunoreactivity
Experimental: as §1

[3] = biological target: T1, human glycine transporter 1b cDNA (GlyT1) (Homo sapiens, UniProt P48067); assay: Inhibition of glycine transporter 1 in a cellular assay ([3H] glycine uptake into CHO cells); assay type: cell-based
T1 construct: expressed in transfected cells
T1 sequence (P48067 1-652 isoform P48067-3): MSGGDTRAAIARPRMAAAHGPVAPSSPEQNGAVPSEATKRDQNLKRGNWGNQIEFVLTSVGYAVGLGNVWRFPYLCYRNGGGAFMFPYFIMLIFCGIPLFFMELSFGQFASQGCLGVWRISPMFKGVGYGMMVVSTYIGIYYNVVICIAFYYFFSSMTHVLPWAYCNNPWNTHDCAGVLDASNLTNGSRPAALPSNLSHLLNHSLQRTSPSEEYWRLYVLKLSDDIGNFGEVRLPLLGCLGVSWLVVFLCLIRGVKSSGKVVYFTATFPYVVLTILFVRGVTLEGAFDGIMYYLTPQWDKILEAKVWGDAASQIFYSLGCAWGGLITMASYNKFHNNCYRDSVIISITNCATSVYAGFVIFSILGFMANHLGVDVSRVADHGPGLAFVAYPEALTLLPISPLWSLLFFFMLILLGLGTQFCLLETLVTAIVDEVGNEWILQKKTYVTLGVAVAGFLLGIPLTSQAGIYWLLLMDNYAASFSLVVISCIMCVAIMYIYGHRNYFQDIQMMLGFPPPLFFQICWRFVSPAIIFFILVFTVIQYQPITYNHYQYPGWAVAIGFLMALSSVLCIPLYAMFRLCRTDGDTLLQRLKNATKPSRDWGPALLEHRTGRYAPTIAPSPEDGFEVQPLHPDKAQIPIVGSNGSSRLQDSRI
Experimental: Cells were harvested by trypsinisation one day prior to the assay and were seeded in the above mentioned medium. Immediately prior to the assay, the medium was replaced by uptake buffer containing 150 mM NaCl, 1 mM CaCl2, 2.5 mM KCl, 2.5 mM MgCl2, 10 mM Glucose and 10 mM N-2-hydroxyethylpiperazine-N'-2-ethanesulfonic acid ("Hepes" buffer). […] Louis, USA) were used as known inhibitors of GlyT1. […] Data is shown as mean ± s.e.m., where the IC50 is stated as µM for pure compounds and as µg/mLfor extracts.

[4] = test system: GluR1; assay: Hippocampal slice cultures, immunohistochemistry of synaptic marker GluR1; assay type: cell-based, Wistar rats; details: relative activation vs sister cultures treated with buffer; 15 min treatment after 48 h in culture
Experimental: Seven-day-old Wistar rats were decapitated using a guillotine. […] Transversal hippocampal slices (400 µm) were prepared using a vibrating blade microtome (VT1200S; Leica Microsystems (Schweiz) AG, Heerbrugg, Switzerland) in the same buffer. Hippocampal slices were individually placed on a membrane insert (Millicell Culture Plate Inserts, 0.4 µm) and cultivated at 35 °C, 5% CO2, 95% humidity in a medium containing a 1:1 mixture of BME and MEM (both from Invitrogen) containing 25% heat-inactivated horse serum, 1x GlutaMAX, 1x Penicillin/Streptomycin, 0.6% glucose and 1mM Kynurenic acid (Stoppini, Buchs and Muller (1991), J. Neurosci. Methods, 37(2), 173-82). After 48 h in culture, synaptic NMDA receptors were activated by addition of black pepper extract or its constituents for 15 min in 140 mM NaCl, 5 mM KCl, 1.3 mM CaCl2, 25 mM HEPES (pH 7.3), 33 mM D-glucose and 0.02 mM bicuculline methiodide. […] After the treatments, sections were washed and fixed for immunohistochemistry. Markers of enhanced synaptic activity, normally associated with long-term potentiation, representing an ex vivo model of learning and memory were quantitated (see Table 2, below). Table 2. […] The activation of any of these markers (or a combination thereof) is observed in classical LTP experiments.

[5] = pure compounds, CHO cells expressing GlyT1, 60 nM [3H] glycine, 30 minutes at room temperature

IC50 ([3]; read-out: IC50 for tritiated glycine uptake, pure compounds, CHO cells expressing GlyT1, 60 nM [3H] glycine, 30 minutes at room temperature)	IC50 [3]	Structure (SMILES)	pCREB [1]	pMAPK [2]	GluR1 [4]	IC50 for tritiated glycine uptake [3, 5]
0.02 µM		CN(CC[C@@H](Oc1ccc(C(F)(F)F)cc1)c1ccccc1)CC(=O)O [ORG24598, reference compound]				
	48.7 µM	O=C(/C=C/C=C/c1ccc2c(c1)OCO2)N1CCCCC1 [Piperine]	±	±	119-1742%	

The next lines start with the molecule.

Structure (SMILES)	IC50 ([3]; read-out: IC50 for tritiated glycine uptake, pure compounds, CHO cells expressing GlyT1, 60 nM [3H] glycine, 30 minutes at room temperature)	IC50 [3]	pCREB [1]	pMAPK [2]	GluR1 [4]	IC50 for tritiated glycine uptake [3, 5]
NCC(=O)O [Glycine, reference compound]			++	++		
COc1cc(/C=C/C(=O)N2CCC=CC2=O)cc(OC)c1OC [Piperlongumine]			±	±	412-931%	inactive
CC(C)CNC(=O)/C=C/C=C/c1ccc2c(c1)OCO2 [Piperlonguminine]						inactive
CNCC(=O)O [Sarcosine, reference compound]			±	±		
